# According to patent US20070185149A1, “Novel amido-substituted hydroxy-6-phenylphenanthridines and their use as pde4 inhibtors” (ALTANA PHARMA AG, priority 2004, published 2007):
# Target: T1, PDE4B2 (Homo sapiens, UniProt Q07343)
# T1 construct: made in house; host or cells: SF21 insect cells (baculovirus; virus prepared in SF9 cells)
# Assay: Inhibition of PDE4 activity: PDE4B2 [3H]cAMP SPA enzyme assay
# Assay type: biochemical
# Conditions: recombinant PDE4B2 (SF21 cell supernatant), modified SPA test, 0.5 μM cAMP, 15 min at 37° C.; read-out: Inhibition of the PDE4 activity, −log IC50 (converted)
# Method: The PDE4B2 (GB no. M97515) was a gift of Prof. M. Conti (Stanford University, USA). It was amplified from the original plasmid (pCMV5) via PCR with primers Rb9 (5′-[…]-3′) and Rb10 (5′-[…]-3′) and cloned into the pCR-Bac vector (Invitrogen, Groningen, NL).
# The recombinant baculovirus was prepared by means of homologous recombination in SF9 insect cells.
# The expression plasmid was cotransfected with Bac-N-Blue (Invitrogen, Groningen, NL) or Baculo-Gold DNA (Pharmingen, Hamburg) using a standard protocol (Pharmingen, Hamburg). Wt virus-free recombinant virus supernatant was selected using plaque assay methods. After that, high-titre virus supernatant was prepared by amplifying 3 times. PDE was expressed in SF21 cells by infecting 2×10^6 cells/ml with an MOI (multiplicity of infection) between 1 and 10 in serum-free SF900 medium (Life Technologies, Paisley, UK). The cells were cultured at 28° C. for 48-72 hours, after which they were pelleted for 5-10 min at 1000 g and 4° C.
# The SF21 insect cells were resuspended, at a concentration of approx. 10^7 cells/ml, in ice-cold (4° C.) homogenization buffer (20 mM Tris, pH 8.2, containing the following additions: 140 mM NaCl, 3.8 mM KCl, 1 mM EGTA, 1 mM MgCl2, 10 mM β-mercaptoethanol, 2 mM benzamidine, 0.4 mM Pefablock, 10 μM leupeptin, 10 μM pepstatin A, 5 μM trypsin inhibitor) and disrupted by ultrasonication. The homogenate was then centrifuged for 10 min at 1000×g and the supernatant was stored at −80° C. until subsequent use (see below). The protein content was determined by the Bradford method (BioRad, Munich) using BSA as the standard.
# PDE4B2 activity is inhibited by the said compounds in a modified SPA (scintillation proximity assay) test, supplied by Amersham Biosciences (see procedural instructions “phosphodiesterase [3H]cAMP SPA enzyme assay, code TRKQ 7090”), carried out in 96-well microtitre plates (MTP's). The test volume is 100 μl and contains 20 mM Tris buffer (pH 7.4), 0.1 mg of BSA (bovine serum albumin)/ml, 5 mM Mg^2+, 0.5 μM cAMP (including about 50,000 cpm of [3H]cAMP), 1 μl of the respective substance dilution in DMSO and sufficient recombinant PDE (1000×g supernatant, see above) to ensure that 10-20% of the cAMP is converted under the said experimental conditions. […] After a preincubation of 5 min at 37° C., the reaction is started by adding the substrate (cAMP) and the assay is incubated for a further 15 min; after that, it is stopped by adding SPA beads (50 μl). In accordance with the manufacturer's instructions, the SPA beads had previously been resuspended in water, but were then diluted 1:3 (v/v) in water; the diluted solution also contains 3 mM IBMX to ensure a complete PDE activity stop. After the beads have been sedimented (>30 min), the MTP's are analyzed in commercially available […]. The corresponding IC50 values of the compounds for the inhibition of PDE activity are determined from the concentration-effect curves by means of non-linear regression.
# T1 sequence (Q07343 1-564 isoform Q07343-2): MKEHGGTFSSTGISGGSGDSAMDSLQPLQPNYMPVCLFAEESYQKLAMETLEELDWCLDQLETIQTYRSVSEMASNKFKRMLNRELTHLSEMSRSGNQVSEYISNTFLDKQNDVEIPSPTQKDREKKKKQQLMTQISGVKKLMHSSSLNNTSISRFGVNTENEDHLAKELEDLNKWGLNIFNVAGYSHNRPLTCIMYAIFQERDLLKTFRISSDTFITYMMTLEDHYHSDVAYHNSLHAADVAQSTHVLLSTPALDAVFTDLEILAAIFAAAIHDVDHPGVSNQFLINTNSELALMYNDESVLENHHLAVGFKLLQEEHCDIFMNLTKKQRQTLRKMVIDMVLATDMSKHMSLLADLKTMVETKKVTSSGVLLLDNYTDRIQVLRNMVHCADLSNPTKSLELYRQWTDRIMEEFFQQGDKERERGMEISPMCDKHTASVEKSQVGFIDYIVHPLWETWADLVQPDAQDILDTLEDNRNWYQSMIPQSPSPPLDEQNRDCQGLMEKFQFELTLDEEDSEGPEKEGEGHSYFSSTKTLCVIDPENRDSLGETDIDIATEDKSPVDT
smiles,measurement,value
"COc1cc2c(cc1OC(F)F)[C@H]1C[C@H](O)CC[C@H]1N=C2c1ccc(C(=O)N2CCN(CCN3CCOCC3)CC2)cc1 (racemic) [Compound 29, 1-{4-[(2RS,4aRS,10bRS)-9-(1,1-Difluoro-methoxy)-2-hydroxy-8-methoxy-1,2,3,4,4a,10b-hexahydro-phenanthridin-6-yl]-phenyl}-1-[4(2-morpholin-4-yl-ethyl)-piperazin-1-yl]-methanone]",IC50,0.955 to 8.71 nM
